Data on nine compounds can be found in ChEMBL document CHEMBL1201862, “PubChem BioAssay data set” (2004).

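Values below derive from 48-hour exposures of cells grown in 96-well plates, with endpoints linearly interpolated between the two concentrations bracketing the appropriate inhibition level. Here, GI50 denotes the concentration required for 50% inhibition of growth.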 Activity calls are given as the source filed them. Cut-off read from the data, not from the text of the source: active = GI50 up to about 1.1 µM and inactive = higher.

Some test systems named below: OVCAR-5; SW-620; EKVX; NCI-H522; HT-29; OVCAR-4; SF-539; A549; HL-60; UO-31; IGROV-1; UACC-257; KM12; HCT-15; U-251; RXF 393; SK-MEL-2; NCI-H226.
Experiment in all cases: growth of human tumour cells (NCI), 48 h

`COc1ccc2nc(-c3ccccn3)cc(O)c2c1`: the GI50 was > 100 µM (inactive) in the test with OVCAR-5; 32 µM (inactive) in the test with SW-620; 55.3 µM (inactive) in the test with EKVX; 20.4 µM (inactive) in the test with NCI-H522; 42.8 µM (inactive) with HT-29; 72.3 µM (inactive) with OVCAR-4. Besides, the GI50 in the test on SF-539 is 30 µM (inactive); in the test on A549 it was 44 µM (inactive); in the test with HL-60 it was 34 µM (inactive); with UO-31, 18.4 µM (inactive); in the test on IGROV-1 it was 44.6 µM (inactive); with UACC-257, 50.7 µM (inactive). Further, the GI50 with KM12 was 26.7 µM (inactive).
Regarding `C/C=C(\CCOS(=O)(=O)c1ccc(C)cc1)[Si](C)(C)C`, the GI50 in the test on OVCAR-5 was > 100 µM (inactive); in the test with SW-620, > 100 µM (inactive); in the test on HCT-15 it was over 100 µM; in the test on EKVX it was > 100 µM (inactive); with NCI-H522, > 100 µM (inactive); with HT-29, > 100 µM (inactive). Moreover, the GI50 with SF-539, with A549, in the test on HL-60, in the test with UO-31, with U-251 and with IGROV-1 was > 100 µM (inactive) throughout. Further, the GI50 in the test with RXF 393, in the test with SK-MEL-2, in the test with UACC-257 and in the test with KM12 was > 100 µM (inactive) throughout.
For the compound `COC(=O)c1cc2c(c(C(=O)OC)c1O)C(=O)C=CC2=O`, the GI50 in the test with OVCAR-5 was > 40.4 µM (inactive); in the test on HCT-15, 21.6 µM; in the test with EKVX, > 21.2 µM (inactive); with HT-29 it was > 9.1 µM (inactive); in the test on OVCAR-4, > 38.8 µM (inactive); in the test with SF-539, > 41.6 µM (inactive). Besides, the GI50 is > 42.8 µM (inactive) in the test on A549; > 42.9 µM (inactive) with UO-31; 40.7 µM (inactive) in the test with U-251; 24.1 µM (inactive) in the test on IGROV-1; > 9.1 µM (inactive) in the test on NCI-H226; > 29.1 µM (inactive) in the test with RXF 393. For the same compound, the GI50 was > 9.1 µM (inactive) in the test on SK-MEL-2, > 32.8 µM (inactive) with UACC-257 and > 43.5 µM (inactive) with KM12.
In the case of `Cc1ccc([S+]([O-])C(C)C(Cl)c2ccccc2)cc1` (stereo not given), the GI50 in the test with OVCAR-5 was > 100 µM (inactive); in the test on SW-620 it was > 100 µM (inactive); in the test on HCT-15, over 100 µM; in the test on NCI-H522 it was 28.9 µM (inactive); in the test with HT-29, 38.8 µM (inactive); with OVCAR-4 it was > 100 µM (inactive). Moreover, the GI50 with SF-539 was > 100 µM (inactive); in the test with UO-31 it was > 100 µM (inactive); with U-251 it was 35.6 µM (inactive); in the test with IGROV-1, 60.4 µM (inactive); in the test with NCI-H226, > 100 µM (inactive); in the test with RXF 393 it was 53.7 µM (inactive). Also, the GI50 was > 100 µM (inactive) in the test on SK-MEL-2 and 34.7 µM (inactive) with UACC-257.
On to `N#Cc1c2ccccc2cn1-c1ccc(F)cc1`, for which the GI50 in the test on OVCAR-5 is 45.6 µM (inactive); in the test on SW-620, 46.2 µM (inactive); in the test with HCT-15 it was over 10 µM; in the test with NCI-H522 it was 14.4 µM (inactive); in the test with HT-29, 23.5 µM (inactive); with OVCAR-4, 8.73 µM (inactive). Moreover, the GI50 is 24.8 µM (inactive) in the test on SF-539; 24.6 µM (inactive) with A549; 4.62 µM (inactive) in the test on HL-60; 8.59 µM (inactive) in the test on UO-31; 39.1 µM (inactive) with U-251; 67.6 µM (inactive) in the test with IGROV-1. For the same compound, the GI50 in the test with NCI-H226 is 9.27 µM (inactive); with SK-MEL-2, > 10 µM (inactive); in the test on UACC-257, 26.9 µM (inactive); in the test with KM12, 21.8 µM (inactive).
Regarding `CSc1nc(SC)c2c(C(N)=S)n[nH]c2n1`, the GI50 is 37 µM (inactive) with SW-620; 36.2 µM in the test with HCT-15; 22.2 µM (inactive) in the test with EKVX; > 10 µM (inactive) with NCI-H522; 33 µM (inactive) in the test with HT-29; 21.2 µM (inactive) with OVCAR-4. Besides, the GI50 was 23.1 µM (inactive) in the test on SF-539; 23 µM (inactive) in the test with A549; 19 µM (inactive) with UO-31; 23 µM (inactive) in the test on U-251; 30.4 µM (inactive) with IGROV-1; 19.9 µM (inactive) in the test with NCI-H226. The GI50 in the test on RXF 393 was 22.8 µM (inactive); with SK-MEL-2 it was 24 µM (inactive); with UACC-257 it was 21.8 µM (inactive); in the test on KM12, 37.4 µM (inactive).
With `N#CC12CCC1C1CCCCC12N1CCSCC1` (stereo not given), the GI50 with SW-620 is > 100 µM (inactive); in the test on HCT-15, over 100 µM; in the test on HT-29, > 100 µM (inactive); in the test with OVCAR-4, > 10 µM (inactive); with SF-539, > 100 µM (inactive); in the test on A549 it was > 100 µM (inactive). The GI50 in the test with HL-60 was 16.3 µM (inactive); with UO-31 it was > 100 µM (inactive); in the test on U-251 it was > 100 µM (inactive); in the test with IGROV-1, > 100 µM (inactive); with RXF 393, 18.1 µM (inactive); in the test with SK-MEL-2, 35.4 µM (inactive). For the same compound, the GI50 with UACC-257 was > 10 µM (inactive); in the test on KM12, 92.3 µM (inactive).
For the compound `[N-]=[N+]=NC1C(Br)C(=O)NC(=O)N1[C@H]1C[C@H](O)[C@@H](CO)O1` (stereo not given in full), the GI50 with OVCAR-5, in the test with SW-620, in the test with EKVX, in the test with NCI-H522, in the test with HT-29 and in the test on OVCAR-4 was > 100 µM (inactive) throughout. For the same compound, the GI50 with SF-539, in the test on A549, in the test on HL-60, with UO-31, in the test on U-251 and in the test with IGROV-1 was > 100 µM (inactive) in each case. For the same compound, the GI50 in the test on RXF 393, in the test with SK-MEL-2, with UACC-257 and with KM12 was > 100 µM (inactive) throughout.
As to `CC[S+](C)c1ccc(-c2c3nc(c(-c4ccc([S+](C)CC)cc4)c4ccc([nH]4)c(-c4ccc([S+](C)CC)cc4)c4nc(c(-c5ccc([S+](C)CC)cc5)c5ccc2[nH]5)C=C4)C=C3)cc1.[O-][Cl+3]([O-])([O-])[O-].[O-][Cl+3]([O-])([O-])[O-].[O-][Cl+3]([O-])([O-])[O-].[O-][Cl+3]([O-])([O-])[O-]` (stereo not given), the GI50 in the test with OVCAR-5 was 21.7 µM (inactive); with SW-620 it was 28.3 µM (inactive); in the test with HCT-15, 19.3 µM; in the test with EKVX it was 11 µM (inactive); with NCI-H522, 29.6 µM (inactive); with HT-29, 29.2 µM (inactive). Moreover, the GI50 with OVCAR-4 is > 100 µM (inactive); in the test on SF-539 it was 27.4 µM (inactive); in the test on A549, 18.5 µM (inactive); with HL-60 it was 6.41 µM (inactive); in the test on U-251 it was 16.6 µM (inactive); in the test on RXF 393, 13.6 µM (inactive). The GI50 in the test on SK-MEL-2 is 18.2 µM (inactive); in the test with UACC-257 it was 31 µM (inactive); with KM12, 20.3 µM (inactive).
